Experimental data: US12187709B2 (Genentech, Inc., priority 2021, dated 2025)

Assays:
c-Cbl = c-Cbl (Homo sapiens (Human), UniProt P22681); assay: C-Cbl LCK Ub TR-FRET assay (C-cbl Lck HTRF); format: biochemical
Procedure, shortened: (§1)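 Detection reagents added, brief spin, 20 min RT. IC50 fit normalized to no-LCK (low) and DMSO (high) controls.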

c-Cbl (residues 47-435) = c-Cbl (residues 47-435) (Homo sapiens (Human), UniProt P22681); assay: c-Cbl SPR assay; format: binding; conditions: 20° C.
Sequence of c-Cbl (residues 47-435) (P22681 47-435): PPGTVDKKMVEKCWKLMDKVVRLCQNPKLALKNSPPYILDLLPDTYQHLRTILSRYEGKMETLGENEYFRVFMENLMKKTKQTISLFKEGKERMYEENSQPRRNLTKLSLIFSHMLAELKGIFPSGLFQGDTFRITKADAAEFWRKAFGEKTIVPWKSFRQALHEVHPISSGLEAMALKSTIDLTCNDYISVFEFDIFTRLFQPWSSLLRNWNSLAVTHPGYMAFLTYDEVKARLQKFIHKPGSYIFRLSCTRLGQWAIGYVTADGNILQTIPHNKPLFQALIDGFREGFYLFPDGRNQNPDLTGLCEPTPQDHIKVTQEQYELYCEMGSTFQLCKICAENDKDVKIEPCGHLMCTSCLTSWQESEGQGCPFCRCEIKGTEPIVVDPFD
Procedure, shortened: (§2)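 Where a chaser compound was used, % compound bound was calculated as (1−(RUT/RUT0))*100 relative to a prior chaser injection and fitted to a single exponential for kd. The single cycle titration (max 500 nM) was then fitted with kd held fixed.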

Cbl-b = Cbl-b (Homo sapiens (Human), UniProt Q13191); assay: Cbl-b LCK Ub TR-FRET assay (Cbl-b Lck HTRF); format: biochemical; conditions: for IC50: Cbl-b LCK Ub TR-FRET, Example 121; for (fold-selectivity) Cbl-b and C-Cbl Selectivity: ratio C-cbl Lck HTRF IC50 / Cbl-b Lck HTRF IC50
Sequence of Cbl-b (Q13191 40-426): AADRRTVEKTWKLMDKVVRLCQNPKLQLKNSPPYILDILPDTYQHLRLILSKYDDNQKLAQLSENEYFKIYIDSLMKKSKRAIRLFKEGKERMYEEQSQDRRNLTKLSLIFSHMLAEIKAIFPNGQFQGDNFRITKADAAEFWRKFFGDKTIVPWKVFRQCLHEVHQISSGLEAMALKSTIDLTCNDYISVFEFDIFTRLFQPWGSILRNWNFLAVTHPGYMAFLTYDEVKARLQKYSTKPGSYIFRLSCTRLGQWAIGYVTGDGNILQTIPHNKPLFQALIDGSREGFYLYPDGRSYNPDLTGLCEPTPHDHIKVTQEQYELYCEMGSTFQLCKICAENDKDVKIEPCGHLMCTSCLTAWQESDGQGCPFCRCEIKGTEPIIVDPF
Procedure, shortened: as §1

[1] = target: Human Cbl-b (residues 40-426) (Homo sapiens (Human), UniProt Q13191); assay: Cbl-b SPR assay; format: binding; conditions: for Fold of selectivity: C-cbl SPR Kd vs Cbl-b SPR Kd; for Kd: SPR, 20° C.
Sequence of Human Cbl-b (residues 40-426) (Q13191 40-426): as above
Procedure, shortened: as §2

Sequence of c-Cbl (P22681 47-435): as the sequence (P22681 47-435) above

Structure (SMILES) | IC50 (c-Cbl) | Kd (c-Cbl (residues 47-435)) | IC50 (Cbl-b) | (fold-selectivity) Cbl-b and C-Cbl Selectivity (Cbl-b) | Fold of selectivity [1] | Kd [1]
CO[C@H]1C[C@](c2cccc(N3Cc4c(cc(CN5CCOCC5)cc4C(F)(F)F)C3=O)c2)(c2nncn2C)C1 [Compound 417, 2-(3-((1r,3r)-3-methoxy-1-(4-methyl-4H-1,2,4-triazol-3-yl)cyclobutyl)phenyl)-6-(morpholinomethyl)-4-(trifluoromethyl)isoindolin-1-one] | 3.2 µM | 8.6 µM | 0.48 µM | 6.6x | 7.2× | 1.1 µM
CO[C@H]1C[C@](c2cccc(N3Cc4c(cc(CN5CCCC5)cc4C(F)(F)F)C3=O)c2)(c2nncn2C)C1 [Compound 418, 2-(3-((1r,3r)-3-methoxy-1-(4-methyl-4H-1,2,4-triazol-3-yl)cyclobutyl)phenyl)-6-(pyrrolidin-1-ylmethyl)-4-(trifluoromethyl)isoindolin-1-one] | 1.4 µM | 1.2 µM | 0.18 µM | 7.3x | 8.7× | 0.14 µM
CO[C@H]1C[C@](c2cccc(N3Cc4c(cc(CNC(C)C)cc4C(F)(F)F)C3=O)c2)(c2nncn2C)C1 [Compound 419, 6-((isopropylamino)methyl)-2-(3-((1r,3r)-3-methoxy-1-(4-methyl-4H-1,2,4-triazol-3-yl)cyclobutyl)phenyl)-4-(trifluoromethyl)isoindolin-1-one] | 0.19 µM | 0.24 µM | 0.029 µM | 6.7x | 8.2× | 0.032 µM
CO[C@H]1C[C@](c2cccc(N3Cc4c(cc(CNCC(C)C)cc4C(F)(F)F)C3=O)c2)(c2nncn2C)C1 [Compound 421, 6-((isobutylamino)methyl)-2-(3-((1r,3r)-3-methoxy-1-(4-methyl-4H-1,2,4-triazol-3-yl)cyclobutyl)phenyl)-4-(trifluoromethyl)isoindolin-1-one] | 0.017 µM | 0.024 µM | 0.0065 µM | 2.6x | 14× | 0.0017 µM
CO[C@H]1C[C@](c2cccc(N3Cc4c(cc(CN5CC(O)C5)cc4C(F)(F)F)C3=O)c2)(c2nncn2C)C1 [Compound 422, 6-((3-hydroxyazetidin-1-yl)methyl)-2-(3-((1r,3r)-3-methoxy-1-(4-methyl-4H-1,2,4-triazol-3-yl)cyclobutyl)phenyl)-4-(trifluoromethyl)isoindolin-1-one] | 1.6 µM | 1.8 µM | 0.22 µM | 7.2x | 5.3× | 0.34 µM
CO[C@H]1C[C@](c2cccc(N3Cc4c(cc(CN5CC6(CC6)C5)cc4C(F)(F)F)C3=O)c2)(c2nncn2C)C1 [Compound 423, 6-(5-azaspiro[2.3]hexan-5-ylmethyl)-2-(3-((1r,3r)-3-methoxy-1-(4-methyl-4H-1,2,4-triazol-3-yl)cyclobutyl)phenyl)-4-(trifluoromethyl)isoindolin-1-one] | 0.5 µM | 0.84 µM | 0.1 µM | 5.0x | 8.7× | 0.096 µM
CCC(NCc1cc2c(c(C(F)(F)F)c1)CN(c1cccc([C@]3(c4nncn4C)C[C@H](OC)C3)c1)C2=O)C(=O)OC (stereo partly drawn) [Compound 425, methyl 2-(((2-(3-((1r,3r)-3-methoxy-1-(4-methyl-4H-1,2,4-triazol-3-yl)cyclobutyl)phenyl)-3-oxo-7-(trifluoromethyl)isoindolin-5-yl)methyl)amino)butanoate] | 0.88 µM | 1.9 µM | 0.13 µM | 6.8x | 11× | 0.17 µM
CO[C@H]1C[C@](c2cccc(N3Cc4c(cc(CNC5CC6(C5)CC6(F)F)cc4C(F)(F)F)C3=O)c2)(c2nncn2C)C1 (stereo partly drawn) [Compound 426, 6-(((1,1-difluorospiro[2.3]hexan-5-yl)amino)methyl)-2-(3-((1r,3r)-3-methoxy-1-(4-methyl-4H-1,2,4-triazol-3-yl)cyclobutyl)phenyl)-4-(trifluoromethyl)isoindolin-1-one] | 0.06 µM | 0.0099 µM | 0.013 µM | 4.6x | 15× | 0.0066 µM
CO[C@H]1C[C@](c2cccc(N3Cc4c(cc(CNC5CC6C(C5)C6(F)F)cc4C(F)(F)F)C3=O)c2)(c2nncn2C)C1 (stereo partly drawn) [Compound 427, 6-(((6,6-difluorobicyclo[3.1.0]hexan-3-y)amino)methyl)-2-(3-((1r,3r)-3-methoxy-1-(4-methyl-4H-1,2,4-triazol-3-yl)cyclobutyl)phenyl)-4-(trifluoromethyl)isoindolin-1-one] | 0.022 µM | 0.037 µM | 0.007 µM | 3.1x | 14× | 0.0026 µM
C[C@@H](NC1(C)CCC1)c1cc2c(c(C(F)(F)F)c1)CN(c1cccc([C@H](c3nncn3C)C3COC3)c1)C2=O [Compound 444, 2-(3-((R)-(4-methyl-4H-1,2,4-triazol-3-yl)(oxetan-3-yl)methyl)phenyl)-6-((R)-1-((1-methylcyclobutyl)amino)ethyl)-4-(trifluoromethyl)isoindolin-1-one] | 0.0045 µM | 0.0007 µM | 0.0041 µM | 1.1x | 1.8× | 0.0004 µM

The next lines start with the values.

IC50 (c-Cbl) | Kd (c-Cbl (residues 47-435)) | IC50 (Cbl-b) | (fold-selectivity) Cbl-b and C-Cbl Selectivity (Cbl-b) | Fold of selectivity [1] | Kd [1] | Structure (SMILES)
0.03 µM | 0.023 µM | 0.0097 µM | 3.1x | 4.7× | 0.0048 µM | C[C@H](NC1(C)CCC1)c1cc2c(c(C(F)(F)F)c1)CN(c1cccc([C@H](c3nncn3C)C3COC3)c1)C2=O [Compound 445, 2-(3-((R)-(4-methyl-4H-1,2,4-triazol-3-yl)(oxetan-3-yl)methyl)phenyl)-6-((S)-1-((1-methylcyclobutyl)amino)ethyl)-4-(trifluoromethyl)isoindolin-1-one]
0.011 µM | 0.0066 µM | 0.0068 µM | 1.7x | 5.1× | 0.0013 µM | Cn1cnnc1[C@]1(c2cccc(N3Cc4c(cc(CNC5(C)CCC5)cc4C(F)F)C3=O)c2)C[C@H](Cl)C1 [Compound 446, 2-(3-((1s,3s)-3-chloro-1-(4-methyl-4H-1,2,4-triazol-3-yl)cyclobutyl)phenyl)-4-(difluoromethyl)-6-(((1-methylcyclobutyl)amino)methyl)isoindolin-1-one]
0.0062 µM | 0.0016 µM | 0.0045 µM | 1.4x | 5.3× | 0.0003 µM | Cn1cnnc1[C@]1(c2cccc(N3Cc4c(cc(CNC5(C)CCC5)cc4C(F)F)C3=O)c2)C[C@@H](Cl)C1 [Compound 447, 2-(3-((1r,3r)-3-chloro-1-(4-methyl-4H-1,2,4-triazol-3-yl)cyclobutyl)phenyl)-4-(difluoromethyl)-6-(((1-methylcyclobutyl)amino)methyl)isoindolin-1-one]
3.9 µM | 2.5 µM | 0.73 µM | 5.5x | 5.8× | 0.42 µM | CO[C@H]1C[C@@](c2cccc(N3Cc4ccc(CNC5(C)CCC5)cc4C3=O)c2)(c2nncn2C)C1 [Compound 448, 2-(3-((1s,3s)-3-methoxy-1-(4-methyl-4H-1,2,4-triazol-3-yl)cyclobutyl)phenyl)-6-(((1-methylcyclobutyl)amino)methyl)isoindolin-1-one]
1.2 µM | 0.92 µM | 0.22 µM | 5.4x | 8.0× | 0.12 µM | CO[C@H]1C[C@](c2cccc(N3Cc4ccc(CNC5(C)CCC5)cc4C3=O)c2)(c2nncn2C)C1 [Compound 449, 2-(3-((1r,3r)-3-methoxy-1-(4-methyl-4H-1,2,4-triazol-3-yl)cyclobutyl)phenyl)-6-(((1-methylcyclobutyl)amino)methyl)isoindolin-1-one]
0.023 µM | 0.019 µM | 0.0058 µM | 4.0x | 7.2× | 0.0026 µM | Cn1cnnc1[C@]1(c2cccc(N3Cc4c(cc(CNC5(C)CCC5)cc4C(F)(F)F)C3=O)c2)C[C@@H](OC2CC2)C1 [Compound 450, 2-(3-((1r,3r)-3-cyclopropoxy-1-(4-methyl-4H-1,2,4-triazol-3-yl)cyclobutyl)phenyl)-6-(((1-methylcyclobutyl)amino)methyl)-4-(trifluoromethyl)isoindolin-1-one]
0.0066 µM | 0.0015 µM | 0.0042 µM | 1.6x | 6.0× | 0.00025 µM | Cn1cnnc1[C@]1(c2cccc(N3Cc4c(Cl)cc(CNC5(C)CCC5)cc4C3=O)c2)C[C@@H](Cl)C1 [Compound 451, 4-chloro-2-(3-((1r,3r)-3-chloro-1-(4-methyl-4H-1,2,4-triazol-3-yl)cyclobutyl)phenyl)-6-(((1-methylcyclobutyl)amino)-methyl)isoindolin-1-one]
